From ChEMBL document CHEMBL3826924, “Charged Nonclassical Antifolates with Activity Against Gram-Positive and Gram-Negative Pathogens” (ACS Med Chem Lett, 2016)
≈ marks a conversion by molar mass, not a printed value. Calls of active or inactive are those of the source. The calls are words filed in the database; no cut-off is given here.

Legend:
Escherichia coli [1] = assay: Antibacterial activity against Escherichia coli harboring macB gene deletion mutant by alamar blue reagent based micro dilution broth assay; assay type: functional, organism-based
[2] = Cytotoxicity against HDF at 100 uM after 4 hrs by alamar blue assay; details: human
[3] = Cytotoxicity against human MCF10A cells after 4 hrs by alamar blue assay; assay type: cell-based; details: MCF-10A
Escherichia coli [4] = assay: Antibacterial activity against Escherichia coli JW0451 harboring AcrB gene deletion mutant by alamar blue reagent based micro dilution broth assay; assay type: functional, organism-based
Escherichia coli [5] = assay: Antibacterial activity against Escherichia coli harboring acrF gene deletion mutant by alamar blue reagent based micro dilution broth assay; assay type: functional, organism-based
Escherichia coli [6] = assay: Antibacterial activity against Escherichia coli NR698 harboring imp gene deletion mutant by alamar blue reagent based micro dilution broth assay; assay type: functional
Staphylococcus aureus [7] = assay: Bactericidal activity against Staphylococcus aureus ATCC 43300; assay type: functional, organism-based
Escherichia coli [8] = assay: Antibacterial activity against Escherichia coli harboring emrB gene deletion mutant by alamar blue reagent based micro dilution broth assay; assay type: functional, organism-based
Escherichia coli [9] = assay: Antibacterial activity against Escherichia coli ATCC 25922 by alamar blue reagent based micro dilution broth assay; assay type: functional
Staphylococcus aureus [10] = assay: microbe, parasite or virus in culture; details: ATCC 43300, 18 h
HepG2 [11] = assay: Cytotoxicity against human HepG2 cells at 100 uM after 4 hrs by alamar blue assay; assay type: cell-based; details: hepg2, 4 h
[12] = Ratio of MIC for Escherichia coli ATCC 25922 to MIC for Escherichia coli NR698 harboring imp gene deletion mutant; assay type: functional
Escherichia coli [13] = assay: microbe, parasite or virus in culture
Escherichia coli [14] = assay: Antibacterial activity against Escherichia coli W4573 after 8 hrs; assay type: functional; details: W4573, 8 h
Escherichia coli [15] = assay: Antibacterial activity against Escherichia coli harboring ompC gene deletion mutant by alamar blue reagent based micro dilution broth assay; assay type: functional
Escherichia coli [16] = assay: Antibacterial activity against Escherichia coli harboring ompF gene deletion mutant by alamar blue reagent based micro dilution broth assay; assay type: functional
Escherichia coli [17] = assay: Antibacterial activity against Escherichia coli harboring efflux pump deletion mutant after 8 hrs; assay type: functional
Staphylococcus aureus [18] = assay: Antibacterial activity against methicillin-resistant Staphylococcus aureus by agar dilution method; assay type: functional
[19] = Terminal half life in mouse liver microsomes at 0.5 ug/ml in presence of NADPH by UPLC analysis; assay type: ADME; details: read-out: beta t1/2
[20] = Cytotoxicity against HDF after 4 hrs by alamar blue assay; details: Homo sapiens
[21] = Therapeutic index, ratio of IC50 for human HepG2 cells to MIC for Staphylococcus aureus ATCC 43300; assay type: cell-based; details: read-out: TI
[22] = Therapeutic index, ratio of IC50 for human MCF10 cells to MIC for Staphylococcus aureus ATCC 43300; assay type: cell-based; details: read-out: TI
[23] = Therapeutic index, ratio of IC50 for human MCF10A cells to MIC for Staphylococcus aureus ATCC 43300; assay type: cell-based, MCF-10A; details: read-out: TI
Cytochrome P450 2D6 = Cytochrome P450 2D6 (Homo sapiens, UniProt P10635); assay: Inhibition of human CYP2D6 using AMMC as substrate assessed as reduction in 3-[-2-(N,Ndiethylamino)ethyl]-7-hydroxy-4-methylcoumarin hydrochloride metabolite formation incubated for 30 mins by high throughput assay; assay type: ADME; details: read-out: INH
Chain of Cytochrome P450 2D6 (P10635 whole entry): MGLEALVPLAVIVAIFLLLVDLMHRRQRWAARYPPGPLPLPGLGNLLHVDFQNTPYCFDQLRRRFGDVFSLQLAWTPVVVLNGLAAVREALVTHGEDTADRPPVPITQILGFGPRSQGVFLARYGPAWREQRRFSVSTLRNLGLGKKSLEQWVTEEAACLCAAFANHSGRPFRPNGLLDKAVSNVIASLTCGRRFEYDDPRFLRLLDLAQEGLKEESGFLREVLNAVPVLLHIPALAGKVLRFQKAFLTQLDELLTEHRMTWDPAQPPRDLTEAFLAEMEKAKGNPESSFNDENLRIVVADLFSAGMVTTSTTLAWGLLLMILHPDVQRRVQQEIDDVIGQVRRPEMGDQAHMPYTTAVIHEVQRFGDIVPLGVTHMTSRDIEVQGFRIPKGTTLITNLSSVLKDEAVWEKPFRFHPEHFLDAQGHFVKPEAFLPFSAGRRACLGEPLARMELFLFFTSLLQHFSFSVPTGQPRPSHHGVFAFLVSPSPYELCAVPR

[24] = Therapeutic index, ratio of IC50 for HDF to MIC for Staphylococcus aureus ATCC 43300; details: human, read-out: TI
[25] = Primary phase half life in mouse liver microsomes at 0.5 ug/ml in presence of NADPH by UPLC analysis; assay type: ADME; details: read-out: alphat1/2
Cytochrome P450 3A4 = Cytochrome P450 3A4 (Homo sapiens, UniProt P08684); assay: Inhibition of human CYP3A4 using BQ as substrate assessed as reduction in 7-hydroxyquinoline metabolite formation incubated for 30 mins by high throughput assay; assay type: ADME; details: read-out: INH
Chain of Cytochrome P450 3A4 (P08684 whole entry): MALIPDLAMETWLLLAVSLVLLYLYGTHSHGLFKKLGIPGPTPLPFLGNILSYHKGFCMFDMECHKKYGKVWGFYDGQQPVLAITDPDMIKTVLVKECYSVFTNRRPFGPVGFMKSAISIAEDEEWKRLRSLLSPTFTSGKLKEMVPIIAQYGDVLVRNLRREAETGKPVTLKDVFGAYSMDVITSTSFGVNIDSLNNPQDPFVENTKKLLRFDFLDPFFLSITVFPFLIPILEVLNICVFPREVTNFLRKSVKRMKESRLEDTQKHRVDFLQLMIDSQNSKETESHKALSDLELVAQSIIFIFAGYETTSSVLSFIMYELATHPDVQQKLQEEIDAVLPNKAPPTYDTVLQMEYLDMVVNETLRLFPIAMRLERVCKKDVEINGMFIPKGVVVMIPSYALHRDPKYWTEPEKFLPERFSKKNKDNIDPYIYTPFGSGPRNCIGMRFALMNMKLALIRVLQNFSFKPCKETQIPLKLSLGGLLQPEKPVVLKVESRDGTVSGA

HepG2 [26] = assay: Cytotoxicity against human HepG2 cells after 4 hrs by alamar blue assay; assay type: cell-based; details: HepG2, 4 h

Row | SMILES | Activity (Escherichia coli [1]) | Activity [2] | IC50 [3] [µM] | Activity (Escherichia coli [4]) | Activity (Escherichia coli [5]) | MIC (Escherichia coli [6]) [µg/mL] | Activity (Staphylococcus aureus [7]) | Activity (Escherichia coli [8]) | MIC (Escherichia coli [9]) [µg/mL] | MIC (Staphylococcus aureus [10]) [µg/mL] | Activity (HepG2 [11]) | Ratio [12] | other results
1 | CCc1nc(N)nc(N)c1C#CCc1cc(OC)cc(-c2ccc(C(=O)O)cc2)c1.O=C(O)C(F)(F)F | Active | Non-toxic | > 100 | Active | Active | 0.0049 | Active | Active | > 20 | 0.0195 | Non-toxic | – | –
2 | CCc1nc(N)nc(N)c1C#C[C@@H](C)c1cc(OC)cc(-c2ccc(C(=O)O)cc2)c1 | Active | Non-toxic | > 100 | Active | Active | 0.0024 (≈ 0.00576 µM) | Active | Active | 10 (≈ 24 µM) | 0.0098 (≈ 0.0235 µM) | Non-toxic | – | –
3 | CC(=O)O.CCc1nc(N)nc(N)c1C#C[C@@H](C)c1cc(-c2ccc(C(=O)O)cc2)ccc1OC | Active | Non-toxic | > 100 | Active | Active | 0.0012 | – | Active | 20 | 0.0195 | Non-toxic | – | –
4 | CCc1nc(N)nc(N)c1C#C[C@H](C)c1cc(OC)cc(-c2ccc(C(=O)O)cc2)c1 | Active | Non-toxic | > 100 | Active | Active | 0.0024 (≈ 0.00576 µM) | Active | Active | 10 (≈ 24 µM) | 0.0098 (≈ 0.0235 µM) | Non-toxic | – | –
5 | CCc1nc(N)nc(N)c1C#CCc1cc(-c2cccc(C(=O)O)c2)ccc1OC.O=C(O)C(F)(F)F | Active | Non-toxic | – | Active | Active | 0.0391 | – | Active | > 20 | 0.625 | Non-toxic | 2000 | –
6 | CCc1nc(N)nc(N)c1C#CCc1cc(-c2ccccc2C(=O)O)ccc1OC | Active | Non-toxic | – | Active | Active | 20 (≈ 49.7 µM) | – | Active | > 32 | > 20 | Non-toxic | 2000 | –
7 | COc1cc(Cc2cnc(N)nc2N)cc(OC)c1OC [TRIMETHOPRIM] | – | – | – | – | – | 0.0098 (≈ 0.0338 µM) | – | – | 0.312 (≈ 1.08 µM) | – | – | – | MIC (Escherichia coli [13]): 0.312 µg/mL (≈ 1.08 µM)
8 | CN(Cc1cnc2nc(N)nc(N)c2n1)c1ccc(C(=O)N[C@@H](CCC(=O)O)C(=O)O)cc1 [METHOTREXATE] | – | – | – | – | – | 40 (≈ 88 µM) | – | – | > 40 | > 40 | – | – | MIC (Escherichia coli [14]): 1000 µM (≈ 454 µg/mL); MIC (Escherichia coli [15]): ≥ 40 µg/mL; MIC (Escherichia coli [16]): ≥ 40 µg/mL; MIC (Escherichia coli [17]): 64 µM (≈ 29.1 µg/mL); MIC50 (Staphylococcus aureus [18]): 20 µg/mL (≈ 44 µM); MIC90 (Staphylococcus aureus [18]): 100 µg/mL (≈ 220 µM)
9 | CCc1nc(N)nc(N)c1C#CCc1cc(-c2ccc(C(=O)O)cc2)ccc1OC | Active | – | > 100 | Active | Active | 0.0098 (≈ 0.0244 µM) | – | Active | > 20 | 0.0195 (≈ 0.0485 µM) | – | 2000 | half-life at 0.5 ug/ml [19]: 1.45 h; IC50 [20]: > 500 µM; selectivity ratio [21]: > 500000; selectivity ratio [22]: > 500000; selectivity ratio [23]: > 500000; IC50 (Cytochrome P450 2D6): > 50 µM; selectivity ratio [24]: > 500000; half-life at 0.5 ug/ml [25]: 1.65 h; IC50 (Cytochrome P450 3A4): > 50 µM; IC50 (HepG2 [26]): > 500 µM
10 | CC(=O)O.CCc1nc(N)nc(N)c1C#C[C@H](C)c1cc(-c2ccc(C(=O)O)cc2)ccc1OC | Active | Non-toxic | > 100 | Active | Active | 0.0391 | – | Active | > 20 | 0.625 | Non-toxic | – | –
